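All cell lines were grown in 96-well plates and treated with compound for 48 hours. GI50 is the concentration that inhibits growth by half.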 Active and inactive are the calls of the source. Rule as the data show it: active = GI50 up to about 1.1 µM and inactive = higher. Peptide text beside a SMILES is read from it. * marks the point of attachment. Boc = CC(C)(C)OC(=O)*; OBn = c1ccc(CO*)cc1

The record followed here is ChEMBL document CHEMBL1201862, “PubChem BioAssay data set” (2004).

Some test systems named below: COLO 205; SNB-75; NCI-H226; DU-145; NCI-H522; SK-OV-3; U-251; Malme-3M; BT-549; SN12C; T47D; PC-3; OVCAR-5; MDA-N; HOP-92; HCT-15; HOP-62; IGROV-1; CCRF-CEM.
What all share (experiment): NCI anticancer screen, dose series, 48 h

Turning to `N#CC1=C(N)OC2=C(CCCc3ccc([N+](=O)[O-])cc32)C1c1ccccc1` (stereo not drawn), the GI50 in the assay on COLO 205 was 3.69 µM (inactive); in the assay on SNB-75, 82.8 µM (inactive); in the assay with NCI-H226 it was 8.3 µM (inactive); in the assay on DU-145, 4.86 µM (inactive); with NCI-H522, 2.14 µM (inactive); in the assay with SK-OV-3, 8.07 µM (inactive). Further, the GI50 was 4.71 µM (inactive) in the assay with U-251; 7.45 µM (inactive) with Malme-3M; 4.5 µM (inactive) with BT-549; 6 µM (inactive) with SN12C; 6.24 µM (inactive) in the assay on T47D; 8.3 µM (inactive) in the assay with PC-3. Moreover, the GI50 with OVCAR-5 was 11 µM (inactive); in the assay with MDA-N, 2.09 µM (inactive); in the assay on HOP-92, 6.46 µM (inactive); in the assay on HCT-15, 2.45 µM; in the assay on HOP-62, 4.17 µM (inactive); in the assay with IGROV-1, 4.19 µM (inactive).

As for `O=C1N=C(SC(SC2=NC(=O)C3(NN2)c2ccccc2-c2ccccc23)=C(SC2=NC(=O)C3(NN2)c2ccccc2-c2ccccc23)SC2=NC(=O)C3(NN2)c2ccccc2-c2ccccc23)NNC12c1ccccc1-c1ccccc12`, the GI50 is 7.21 µM (inactive) in the assay with COLO 205; 7.96 µM (inactive) in the assay with SNB-75; 2.76 µM (inactive) with NCI-H226; > 10 µM (inactive) in the assay on DU-145; 4.54 µM (inactive) in the assay with NCI-H522; > 10 µM (inactive) with SK-OV-3. Also, the GI50 is 5.21 µM (inactive) in the assay on CCRF-CEM; > 10 µM (inactive) in the assay with Malme-3M; 6.53 µM (inactive) in the assay with BT-549; 6.5 µM (inactive) in the assay with SN12C; 0.935 µM (active) with T47D; 4.62 µM (inactive) with PC-3. In addition, the GI50 is 5.36 µM (inactive) in the assay on MDA-N; > 10 µM (inactive) in the assay with HOP-92; 3.62 µM with HCT-15; > 10 µM (inactive) in the assay on HOP-62; 8.2 µM (inactive) in the assay with IGROV-1.

Take `COc1ccc2c(c1)nc1n2C(c2c(Cl)cccc2Cl)SC1` (stereo not drawn): the GI50 is 4.63 µM (inactive) in the assay on COLO 205; > 28.2 µM (inactive) with SNB-75; > 21.8 µM (inactive) in the assay with NCI-H226; 22.3 µM (inactive) in the assay on DU-145; > 51.9 µM (inactive) in the assay with SK-OV-3; 21.4 µM (inactive) in the assay on U-251. Besides, the GI50 with Malme-3M was 3.01 µM (inactive); in the assay on BT-549, > 67.3 µM (inactive); with SN12C it was > 57.5 µM (inactive); with T47D, 16.9 µM (inactive); in the assay with PC-3 it was > 33.3 µM (inactive); in the assay on OVCAR-5, > 67.8 µM (inactive). Moreover, the GI50 was 2.26 µM (inactive) with MDA-N; > 71.4 µM (inactive) in the assay on HOP-92; 5.81 µM in the assay on HCT-15; 32.9 µM (inactive) in the assay on HOP-62; 18.1 µM (inactive) in the assay on IGROV-1.

With `Cc1ccc(S(=O)(=O)NC(=O)C2C(=O)CC3(CCCCC3)CC2=O)cc1`, the GI50 in the assay with COLO 205 was 17.9 µM (inactive); with SNB-75, 51.4 µM (inactive); in the assay with NCI-H226, 34.8 µM (inactive); in the assay with DU-145, 37.5 µM (inactive); with NCI-H522 it was 23.8 µM (inactive); with SK-OV-3, 28.2 µM (inactive). Besides, the GI50 in the assay with CCRF-CEM is 27.3 µM (inactive); in the assay on U-251, 38.4 µM (inactive); in the assay on BT-549 it was 27.5 µM (inactive); in the assay with SN12C, 30.8 µM (inactive); in the assay with T47D it was 20 µM (inactive); in the assay with PC-3, 25.6 µM (inactive). The GI50 in the assay with OVCAR-5 was 24.4 µM (inactive); in the assay with MDA-N, 29.3 µM (inactive); with HOP-92, 14.8 µM (inactive); in the assay on HCT-15, 23.2 µM; with HOP-62, 25.4 µM (inactive); in the assay with IGROV-1, 29.4 µM (inactive).

Regarding `CC(NC(=O)Cc1ccccc1)NC(=O)C(C)C(=O)Nc1ccccc1` (stereo not drawn), the GI50 in the assay on COLO 205 is > 100 µM (inactive); in the assay with SNB-75, 24 µM (inactive); in the assay with NCI-H226 it was 23.3 µM (inactive); with DU-145 it was > 100 µM (inactive); in the assay on NCI-H522 it was 23.1 µM (inactive); in the assay with SK-OV-3, 51.6 µM (inactive). For the same compound, the GI50 in the assay with U-251 is 43.3 µM (inactive); in the assay on Malme-3M, 16.1 µM (inactive); with BT-549 it was 43.5 µM (inactive); in the assay on SN12C, 36.1 µM (inactive); in the assay on T47D, > 100 µM (inactive); in the assay on PC-3, > 100 µM (inactive). Moreover, the GI50 was > 100 µM (inactive) with OVCAR-5; > 100 µM (inactive) with MDA-N; 44.2 µM (inactive) in the assay with HOP-92; above 100 µM in the assay with HCT-15; 61.5 µM (inactive) with IGROV-1.

Regarding `CC1=CC(=O)/C(=C/NC(=S)Nc2ccccc2)C(=O)O1`, the GI50 was > 100 µM (inactive) in the assay with COLO 205; > 100 µM (inactive) in the assay with SNB-75; > 100 µM (inactive) with NCI-H226; > 100 µM (inactive) in the assay with DU-145; 53.3 µM (inactive) in the assay with NCI-H522; > 100 µM (inactive) with SK-OV-3. In addition, the GI50 with CCRF-CEM, in the assay on U-251, with BT-549, in the assay on SN12C, in the assay with T47D and in the assay on PC-3 was > 100 µM (inactive) throughout. In addition, the GI50 with OVCAR-5 is > 100 µM (inactive); in the assay on MDA-N, > 100 µM (inactive); in the assay on HOP-92, > 100 µM (inactive); in the assay on HCT-15, above 100 µM; in the assay on HOP-62, > 100 µM (inactive); with IGROV-1, > 100 µM (inactive).

For `CC(=O)OC[C@@]12C[C@H]3C(=O)C(C)(C)C[C@H]3[C@]1(C)[C@@H](OC(C)=O)[C@]1(O)[C@H]([C@@H](OC(=O)c3ccccc3)[C@@H](C)[C@H]1OC(C)=O)[C@H]2OC(C)=O`, the GI50 in the assay with COLO 205 is 8.71 µM (inactive); in the assay with SNB-75, > 20 µM (inactive); in the assay on NCI-H226, > 20 µM (inactive); with DU-145, > 20 µM (inactive); in the assay with NCI-H522, > 20 µM (inactive); in the assay on SK-OV-3, > 20 µM (inactive). Also, the GI50 in the assay on CCRF-CEM is 6.21 µM (inactive); with U-251, > 20 µM (inactive); in the assay with BT-549 it was > 20 µM (inactive); with SN12C, > 20 µM (inactive); in the assay with T47D, > 20 µM (inactive); in the assay with PC-3, > 20 µM (inactive). Moreover, the GI50 in the assay with OVCAR-5 was > 20 µM (inactive); in the assay on MDA-N it was 12.9 µM (inactive); with HOP-92, > 20 µM (inactive); with HCT-15, above 20 µM; in the assay with HOP-62, > 20 µM (inactive); in the assay with IGROV-1 it was > 20 µM (inactive).

As to `O=c1[nH]nc(Cc2ccc(Cl)cc2)n1/N=C\c1ccc(/C=N/n2c(Cc3ccc(Cl)cc3)n[nH]c2=O)cc1`, the GI50 in the assay on COLO 205 was > 100 µM (inactive); in the assay on NCI-H226, 96.6 µM (inactive); with DU-145 it was > 100 µM (inactive); in the assay with NCI-H522, > 100 µM (inactive); in the assay on CCRF-CEM, > 100 µM (inactive); in the assay with U-251, 26.6 µM (inactive). Also, the GI50 is > 100 µM (inactive) in the assay with Malme-3M; > 100 µM (inactive) with BT-549; 57.3 µM (inactive) in the assay on SN12C; > 100 µM (inactive) in the assay with T47D; > 100 µM (inactive) in the assay on PC-3; > 100 µM (inactive) in the assay on OVCAR-5. Further, the GI50 in the assay with MDA-N is > 100 µM (inactive); in the assay with HOP-92 it was 28.3 µM (inactive); in the assay with HCT-15, above 100 µM; in the assay on HOP-62, 17 µM (inactive); in the assay on IGROV-1 it was > 100 µM (inactive).

Turning to `O=C1c2cc([N+](=O)[O-])ccc2-c2cccc(F)c21`, the GI50 with COLO 205 was > 100 µM (inactive); with SNB-75, > 100 µM (inactive); in the assay on NCI-H226 it was 96.4 µM (inactive); in the assay with DU-145, > 100 µM (inactive); with NCI-H522 it was 44.5 µM (inactive); in the assay with SK-OV-3 it was > 100 µM (inactive). For the same compound, the GI50 in the assay on CCRF-CEM is 23.7 µM (inactive); in the assay on U-251, 90.4 µM (inactive); in the assay with BT-549, > 100 µM (inactive); in the assay on SN12C, > 100 µM (inactive); in the assay with T47D, 23.2 µM (inactive); with PC-3 it was 73.8 µM (inactive). Besides, the GI50 is > 100 µM (inactive) in the assay with OVCAR-5; 72.3 µM (inactive) in the assay with MDA-N; > 100 µM (inactive) in the assay on HOP-92; 37.1 µM in the assay on HCT-15; > 100 µM (inactive) in the assay on HOP-62; 40.7 µM (inactive) in the assay with IGROV-1.

Take `COc1cc(C2S/C(=C/c3ccccc3)C(=O)N2Cc2ccccc2)cc(OC)c1OC` (stereo not drawn): the GI50 in the assay on COLO 205 is 30.1 µM (inactive); in the assay with SNB-75, 18.5 µM (inactive); in the assay with NCI-H226, > 100 µM (inactive); in the assay on DU-145 it was 47 µM (inactive); in the assay with NCI-H522 it was 16.1 µM (inactive); with SK-OV-3 it was 42.1 µM (inactive). The GI50 is 23.1 µM (inactive) in the assay with CCRF-CEM; 32.7 µM (inactive) with U-251; 54.5 µM (inactive) in the assay with BT-549; 39.2 µM (inactive) in the assay on SN12C; 5.07 µM (inactive) in the assay with T47D; 28.2 µM (inactive) in the assay on PC-3. The GI50 with OVCAR-5 was > 100 µM (inactive); in the assay on MDA-N, 19.3 µM (inactive); in the assay on HOP-92, 28.8 µM (inactive); in the assay on HCT-15, 40.1 µM; in the assay with HOP-62 it was 26.2 µM (inactive); in the assay with IGROV-1, 42.2 µM (inactive).

Regarding `CC(C)CC(NC(=O)OC(C)(C)C)C(=O)NC(CC(=O)OCc1ccccc1)C(N)=O` (stereo not drawn) (Boc-Leu-Asp(OBn)-NH2; configuration not given here), the GI50 is > 100 µM (inactive) in the assay with COLO 205; 17.3 µM (inactive) in the assay with SNB-75; > 100 µM (inactive) in the assay on NCI-H226; > 100 µM (inactive) in the assay with DU-145; > 100 µM (inactive) in the assay with NCI-H522; > 100 µM (inactive) in the assay on SK-OV-3. Further, the GI50 with U-251, in the assay with Malme-3M, in the assay on BT-549, in the assay with SN12C, in the assay on T47D and in the assay with PC-3 was > 100 µM (inactive) each time. The GI50 in the assay on OVCAR-5 is > 100 µM (inactive); in the assay with MDA-N, > 100 µM (inactive); with HOP-92, > 100 µM (inactive); with HCT-15, above 100 µM; in the assay with IGROV-1, > 100 µM (inactive).
